The conditions of data set [1]: cited from earlier work; for urinary flow rates and subjective symptom scores: longer term studies.
Data set [2] concerns the target T1, α-1B adrenoceptor (rat spleen) (Rattus norvegicus, UniProt P15823).
T1 construct: PE-induced contraction of rat spleen; from tissue; host or cells: rat spleen
T1 sequence (P15823 1-515): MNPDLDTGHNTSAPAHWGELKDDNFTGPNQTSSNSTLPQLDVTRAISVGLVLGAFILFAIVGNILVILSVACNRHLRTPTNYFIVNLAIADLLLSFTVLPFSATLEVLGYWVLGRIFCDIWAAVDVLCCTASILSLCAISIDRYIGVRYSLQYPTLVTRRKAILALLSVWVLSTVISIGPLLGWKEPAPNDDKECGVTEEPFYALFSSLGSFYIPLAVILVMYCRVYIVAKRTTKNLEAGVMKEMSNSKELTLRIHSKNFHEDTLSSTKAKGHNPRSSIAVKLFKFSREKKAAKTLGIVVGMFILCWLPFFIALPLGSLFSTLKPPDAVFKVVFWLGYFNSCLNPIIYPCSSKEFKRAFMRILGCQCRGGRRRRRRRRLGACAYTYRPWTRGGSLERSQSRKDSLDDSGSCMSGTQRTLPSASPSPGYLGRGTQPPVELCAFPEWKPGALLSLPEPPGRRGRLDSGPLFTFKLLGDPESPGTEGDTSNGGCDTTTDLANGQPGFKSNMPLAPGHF
Description: Functional antagonism: phenylephrine (PE)-induced contraction of rat spleen. Type of data set: cell-based. The settings on record: for more potent effect on spleen smooth muscle: PE-induced contraction, pA2 models compared; for Kb: vs phenylephrine, Schild plot, read-out: pA2 Rat Spleen [α-1B] (converted). From the text: (§1) Functional assays indicative of pharmacologically defined α-1 adrenoceptors were used to further characterize compounds. Inhibition of phenylephrine (PE)-induced contraction of canine prostate smooth muscle can be correlated with α-1A adrenoceptor activation. […] For each of these models, agonist dose response curves were repeated against increasing concentrations of test agent to derive a Schild plot [log ([…]) against log (molarity of test agent)] to determine the pA2.

For data set [3] the following is noted: women during antihypertensive treatment; cited from earlier work.
Data set [4] deals with T2, α-1A adrenoceptor (rat vas deferens) (Rattus norvegicus, UniProt P43140).
T2 construct: PE-induced contraction of rat vas deferens; from tissue; host or cells: rat vas deferens
T2 sequence (P43140 1-466): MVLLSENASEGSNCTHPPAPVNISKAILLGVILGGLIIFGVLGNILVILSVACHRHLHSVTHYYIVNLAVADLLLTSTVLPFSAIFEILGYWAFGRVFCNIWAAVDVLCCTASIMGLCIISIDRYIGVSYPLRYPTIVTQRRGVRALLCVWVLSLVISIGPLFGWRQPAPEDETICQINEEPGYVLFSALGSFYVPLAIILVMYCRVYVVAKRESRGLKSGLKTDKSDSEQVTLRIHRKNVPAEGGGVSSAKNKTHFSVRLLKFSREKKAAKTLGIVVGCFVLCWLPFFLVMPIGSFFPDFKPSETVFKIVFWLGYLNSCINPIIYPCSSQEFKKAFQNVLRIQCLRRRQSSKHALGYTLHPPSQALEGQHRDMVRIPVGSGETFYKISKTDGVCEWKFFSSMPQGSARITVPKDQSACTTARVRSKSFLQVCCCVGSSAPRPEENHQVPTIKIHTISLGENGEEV
Description: Functional antagonism: phenylephrine (PE)-induced contraction of rat vas deferens. The data set is classed as cell-based. The settings on record: vs phenylephrine; Schild plot; read-out: pA2 Rat Vas Deferens [α-1A] (converted).
From the text: as §1

In data set [5] the target is T3, α-1A adrenoceptor (dog prostate) (Canis lupus, UniProt A0A8I3NK63).
T3 sequence (A0A8I3NK63 1-466): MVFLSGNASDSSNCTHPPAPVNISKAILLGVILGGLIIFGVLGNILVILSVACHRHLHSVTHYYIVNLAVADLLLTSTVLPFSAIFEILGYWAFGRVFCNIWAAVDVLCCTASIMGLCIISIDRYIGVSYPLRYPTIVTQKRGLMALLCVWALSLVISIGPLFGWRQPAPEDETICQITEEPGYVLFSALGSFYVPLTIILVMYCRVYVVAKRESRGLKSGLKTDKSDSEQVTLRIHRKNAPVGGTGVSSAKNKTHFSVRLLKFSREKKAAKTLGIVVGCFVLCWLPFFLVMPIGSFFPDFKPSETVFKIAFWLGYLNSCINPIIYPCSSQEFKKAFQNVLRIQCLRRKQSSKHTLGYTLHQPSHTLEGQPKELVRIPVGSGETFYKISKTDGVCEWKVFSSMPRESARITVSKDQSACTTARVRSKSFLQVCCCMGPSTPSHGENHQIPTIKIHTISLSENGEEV
The data set can be described thus: Functional antagonism: phenylephrine (PE)-induced contraction of canine prostate strips. Type of data set: cell-based. Conditions: Table 2a; vs phenylephrine; Schild plot. An outline of the steps: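 Canine prostate smooth-muscle strips in vitro, contracted by phenylephrine. Agonist dose–response curves repeated at rising test-agent concentrations; pA2 derived by Schild plot […].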

Molecules are shown by their SMILES. Structures can show the parent of a compound that is named as a salt.

For `O=C(NC1CCN(CCc2c[nH]c3ccccc23)CC1)c1ccccc1` [indoramin], the “urinary flow rates and subjective symptom scores” value in data set [1] is “significant improvements in urinary flow rates and subjective symptom scores”.
With `COc1cc2nc(N3CCN(C(=O)c4ccco4)CC3)nc(N)c2cc1OC` [prazosin], in data set [2], the “more potent effect on spleen smooth muscle” value is reported as “more potent effect on spleen smooth muscle by approximately an order of magnitude”. Further, in data set [1], the “urinary flow rates and subjective symptom scores” value was “significant improvements in urinary flow rates and subjective symptom scores”. Besides, the urinary incontinence entry in data set [3] is “urinary incontinence developed in women”.
Regarding `COc1cc2nc(N3CCN(C(=O)C4CCCO4)CC3)nc(N)c2cc1OC` (stereo not shown) [terazosin], the “more potent effect on spleen smooth muscle” value in data set [2] is “more potent effect on spleen smooth muscle by approximately an order of magnitude”. Moreover, the “clinical efficacy in BPH” value in data set [1] (human, in vivo) is reported as “Clinical efficacy of α-1 antagonists in BPH has been demonstrated”. The “urinary flow rates and subjective symptom scores” value in data set [1] was “significant improvements in urinary flow rates and subjective symptom scores”.
On to `COc1cccc2c1CC[C@@H]1CN(CCn3c(=O)[nH]c4c(oc5ccccc54)c3=O)C[C@@H]21` (relative stereo) [Example 18, 3-[2-(trans-6-Methoxy-2,3,3a,4,5,9b-hexahydro-[[1H]-benz[e]isoindol-1-yl)ethyl]-benzofuro[3,2-d]pyrimidine-2,4(1H,3H)-dione hydrochloride], for which the results for the Kb in data set [4] and in data set [2] were 13.8 nM and 13.5 nM, respectively. Further, the “pA2 Dog Prostate [α-1A]” value in data set [5] was found to be 8.37.
`COc1cccc2c1CC[C@@H]1CN(CCn3c(=O)[nH]c4c(sc5ccccc54)c3=O)C[C@@H]21` (relative stereo) [Example 10, 3-[2-(trans-6-Methoxy-2,3,3a,4,5,9b-hexahydro-[[1H]-benz[e]isoindol-1-yl)ethyl]-[1]benzothieno[3,2-d]pyrimidine-2,4(1H,3H)-dione hydrochloride]: the Kb in data set [4] was 3.09 nM; in data set [2], 30.2 nM. Further, the “pA2 Dog Prostate [α-1A]” value in data set [5] is 8.37.

These data come from patent US5597823A, “Tricyclic substituted hexahydrobenz [e]isoindole alpha-1 adrenergic antagonists” (priority 1995, dated 1997).
